Here are results for 11 compounds from patent US10189795B2, “Aryl amine substituted quinoxaline used as anticancer drugs” (priority 2014, dated 2019).

Holding throughout (type): cell-based
The subject of assay [1] is NCI-1703. Kind of assay: cell viability of NCI-1703 cells, 1 and 10 uM of each erlotinib derivative, and IC50. The conditions noted are these: Homo sapiens; for IC50: cell viability. As for the experimental part: [Worded in the source for another cell line; this cell line is reported under the same test.] (§1) Sorafenib (Nexavar), erlotinib (Tarceva) and Paclitaxel were kindly provided by Bayer Pharmaceuticals (Pittsburgh, Pa., USA) and Roche Pharmaceuticals (Basel, Switzerland) respectively. Okadaic acid (OA) was purchased from Cayman Chemical (Ann Arbor, Mich., USA) and z-VAD-fmk was obtained from Sigma (St. Louis, Mo., USA). For in vitro studies, drugs at various concentrations were dissolved in dimethyl sulfoxide (DMSO), and added to cells in Dulbecco's modified Eagle's medium (DMEM) or Roswell Park Memorial Institute (RPMI) containing 5% fetal bovine serum (FBS).
(§2) The Sk-Hep1, PLC/PRF/5 (PLC) and Hep3B cell lines were obtained from American Type Culture Collection (ATCC; Manassas, Va., USA). The Huh-7 HCC cell line was obtained from the Health Science Research Resources Bank (HSRRB; Osaka, Japan; JCRB0403). Cells were maintained in DMEM supplemented with 10% FBS in a 37° C. humidified incubator in an atmosphere of 5% CO^2 in air.

Assay [2] concerns NCI-H226. Kind of assay: cell viability of NCI-H226 cells, 1 and 10 uM. The conditions noted are these: Homo sapiens. As for the experimental part:
[Worded in the source for another cell line; this cell line is reported under the same test.] as §1, §2

Assay [3] deals with A549. The assay is described as follows: cell viability of A549 cells, 1 and 10 uM. The note with it: Homo sapiens. As for the experimental part: [Worded in the source for another cell line; this cell line is reported under the same test.] as §1, §2
Assay [4] relates to H358. Kind of assay: cell viability of H358 cells, 1 and 10 uM. The conditions noted are these: Homo sapiens, NCI-H358. Here is the method:
[Worded in the source for another cell line; this cell line is reported under the same test.] as §1, §2

In assay [5] the test system is H2170. The assay is described as follows: cell viability of H2170 cells, 1 and 10 uM. The note with it: Homo sapiens, NCI-H2170. Here is the method: [Worded in the source for another cell line; this cell line is reported under the same test.] as §1, §2
The test system of assay [6] is H520. Kind of assay: cell viability of H520 cells, 1 and 10 uM. The note with it: Homo sapiens, NCI-H520. As for the experimental part: [Worded in the source for another cell line; this cell line is reported under the same test.] as §1, §2
For assay [7], the system named is SW900. The assay is described as follows: cell viability of SW900 cells, 1 and 10 uM. The conditions noted are these: Homo sapiens. Here is the method:
[Worded in the source for another cell line; this cell line is reported under the same test.] as §1, §2

For the compound `c1ccc(Oc2ccc(Nc3nc4ccccc4nc3Nc3ccc(Oc4ccccc4)cc3)cc2)cc1` [TD53, N^2,N^3-bis(4-phenoxyphenyl)quinoxaline-2,3-diamine], the viability (usually a read-out of living cells in per cent, often relative to untreated cells) at 1 µM in assay [1] worked out at 68.4 ± 1.4%; in assay [2] it was 86.2 ± 5.7%; in assay [3], 99.4 ± 6.9%; in assay [4], 120 ± 9.2%; in assay [5] it was 99.7 ± 6%; in assay [6], 101.7 ± 0.34%. In addition, the viability at 1 µM in assay [7] is 121 ± 9.01%. Moreover, the viability at 10 µM is 46.7 ± 0.2% in assay [1]; 56.8 ± 2.7% in assay [2]; 82.7 ± 99.9% in assay [3]; 41.9 ± 3.9% in assay [4]; 59.2 ± 1.25% in assay [5]; 10.6 ± 0.58% in assay [6]. Besides, in assay [1], it took 7.4 µM to reach half-maximal inhibition (IC50).

For the compound `c1ccc(CNc2nc3ccccc3nc2NCc2ccccc2)cc1` [TD54, N^2,N^3-dibenzylquinoxaline-2,3-diamine], the viability at 1 µM in assay [1] stood at 127 ± 2%; in assay [2], 120 ± 4.9%; in assay [5], 100 ± 4.93%; in assay [6], 118 ± 3%; in assay [7] it was 125 ± 27%. Besides, the viability at 10 µM in assay [1] came out at 96.7 ± 4.2%; in assay [2], 110.9 ± 0.8%; in assay [5], 79.1 ± 7.69%; in assay [6], 102 ± 1.46%; in assay [7], 126 ± 10.6%.

As for `c1ccc(Nc2nc3ccccc3nc2Nc2ccccc2)cc1` [TD55, N^2,N^3-diphenylquinoxaline-2,3-diamine], the viability at 1 µM in assay [1] was found to be 64.2 ± 5.3%; in assay [2] it was 106 ± 17.3%; in assay [3], 100 ± 7.2%; in assay [4], 110 ± 14.2%; in assay [5] it was 102.7 ± 0.73%; in assay [6], 89.9 ± 1.02%. Besides, in assay [7], the viability at 1 µM is 100 ± 6.69%. Moreover, the viability at 10 µM in assay [1] stood at 49.9 ± 4.8%; in assay [2] it was 96.4 ± 7.4%; in assay [3], 36.5 ± 5.9%; in assay [4] it was 42.1 ± 0.6%; in assay [5], 94.8 ± 6.05%; in assay [6], 59.2 ± 15.8%. The viability at 10 µM in assay [7] is 88.3 ± 1.29%. For the same compound, the half-inhibitory concentration (IC50) (in general, the point on the concentration scale where inhibition reaches its midpoint) in assay [1] is 8.3 µM.

Regarding `Clc1cccc(Nc2nc3ccccc3nc2Nc2cccc(Cl)c2)c1` [TD56, N^2,N^3-bis(3-chlorophenyl)quinoxaline-2,3-diamine], the viability at 1 µM in assay [1] came to 49.9 ± 4.7%; in assay [2], 115.4 ± 0.8%; in assay [5], 95 ± 0.91%; in assay [6], 98.4 ± 6.37%; in assay [7], 118 ± 5.41%. Besides, the viability at 10 µM in assay [1] came to 28.8 ± 2.3%; in assay [2], 19 ± 2%; in assay [5], 32.5 ± 14.1%; in assay [6] it was 4.76 ± 0.24%; in assay [7], 1.46 ± 3.6%.

As to `Cc1ccc(F)c(Nc2nc3ccccc3nc2Nc2cc(C)ccc2F)c1` [TD58, N^2,N^3-bis(2-fluoro-5-methylphenyl)quinoxaline-2,3-diamine], the viability at 1 µM in assay [1] stood at 127 ± 2.9%; in assay [2], 123 ± 3.6%; in assay [5], 92.8 ± 2.03%; in assay [6] it was 96.2 ± 1.22%; in assay [7], 111 ± 1.54%. The viability at 10 µM in assay [1] came out at 98.9 ± 1.1%; in assay [2], 74.9 ± 1.5%; in assay [5] it was 83 ± 3.41%; in assay [6], 95.6 ± 4.66%; in assay [7], 91.8 ± 9.78%.

`CCc1cccc(Nc2nc3ccccc3nc2Nc2cccc(CC)c2)c1` [TD59, N^2,N^3-bis(3-ethylphenyl)quinoxaline-2,3-diamine]: the viability at 1 µM stood at 114 ± 7.4% in assay [1]; 122 ± 2.6% in assay [2]; 164.6 ± 0.1% in assay [3]; 117 ± 12.1% in assay [4]; 88.4 ± 2.01% in assay [5]; 88.3 ± 1.5% in assay [6]. In addition, the viability at 1 µM in assay [7] turned out to be 110 ± 1.8%. Further, the viability at 10 µM in assay [1] was 26.4 ± 0.7%; in assay [2] it was 32.5 ± 2.5%; in assay [3] it was 24.1 ± 3.9%; in assay [4] it was 19 ± 1.5%; in assay [5], 8.96 ± 1.43%; in assay [6], 0.41 ± 0.32%.

With `FC(F)(F)c1cccc(Nc2nc3ccccc3nc2Nc2cccc(C(F)(F)F)c2)c1` [TD60, N^2,N^3-bis(3-(trifluoromethyl)phenyl)quinoxaline-2,3-diamine], the viability at 1 µM turned out to be 51.9 ± 2.9% in assay [1]; 92.5 ± 1.7% in assay [2]; 91.3 ± 4% in assay [3]; 55.3 ± 1.9% in assay [4]; 72.3 ± 0.89% in assay [5]; 21.8 ± 1.52% in assay [6]. In addition, in assay [7], the viability at 1 µM was 19.3 ± 6.18%. Further, the viability at 10 µM is 26.1 ± 0.8% in assay [1]; 15.9 ± 1% in assay [2]; 21.8 ± 1.4% in assay [3]; 18.1 ± 1.3% in assay [4]; 0.41 ± 0.65% in assay [5]; 0.36 ± 0.18% in assay [6].

As for `N#CCc1ccc(Nc2nc3ccccc3nc2Nc2ccc(CC#N)cc2)cc1` [TD62, 2,2′-((quinoxaline-2,3-diylbis(azanediyl))bis(4,1-phenylene))diacetonitrile], the viability at 1 µM in assay [1] worked out at 112 ± 3.6%; in assay [2], 86 ± 2%; in assay [3], 166 ± 23.1%; in assay [4] it was 121 ± 2.2%; in assay [5] it was 92.5 ± 1.41%; in assay [6] it was 103 ± 1.7%. Also, in assay [7], the viability at 1 µM worked out at 128 ± 1.8%. The viability at 10 µM in assay [1] stood at 65.2 ± 0.6%; in assay [2], 90.1 ± 8.2%; in assay [3], 120 ± 29%; in assay [4], 97.4 ± 8.1%; in assay [5], 85.3 ± 4.56%; in assay [6] it was 100 ± 2.46%. Besides, the viability at 10 µM in assay [7] was 128 ± 6.18%.

Take `FC(F)(F)c1cc(Nc2nc3ccccc3nc2Cl)ccc1Cl` [TD79, 3-chloro-N-(4-chloro-3-(trifluoromethyl)phenyl)quinoxalin-2-amine]: the viability at 1 µM in assay [1] came to 123.7 ± 0.9%; in assay [2], 131 ± 14.3%; in assay [3] it was 96.5 ± 4.4%; in assay [4], 114 ± 2.4%; in assay [5], 98.5 ± 1.56%; in assay [6], 96.6 ± 5.57%. Further, the viability at 1 µM in assay [7] was 98.9 ± 3.79%. Also, the viability at 10 µM was found to be 64.8 ± 4.5% in assay [1]; 125 ± 10.5% in assay [2]; 71.6 ± 10.1% in assay [3]; 87.7 ± 1.8% in assay [4]; 102 ± 5.66% in assay [5]; 99 ± 6.01% in assay [6]. Further, in assay [7], the viability at 10 µM is 88.2 ± 19.9%.

With `COc1ccc(Nc2nc3ccc([N+](=O)[O-])cc3nc2Nc2ccc(OC)cc2)cc1` [TD602, N^2,N^3-bis(4-methoxyphenyl)-6-nitroquinoxaline-2,3-diamine], the viability at 1 µM was 42 ± 1.1% in assay [1]; 98.1 ± 5.9% in assay [2]; 47.4 ± 2.4% in assay [3]; 58.3 ± 9.2% in assay [4]; 112 ± 3.97% in assay [5]; 104 ± 2.31% in assay [6]. Moreover, the viability at 1 µM in assay [7] was found to be 120 ± 5.8%. Besides, the viability at 10 µM worked out at 9.8% in assay [1]; 8.1 ± 0.4% in assay [2]; 10 ± 0.8% in assay [3]; 12 ± 0.5% in assay [4]; 7.14 ± 4.42% in assay [5]; 0.89 ± 0.41% in assay [6]. Further, in assay [7], the viability at 10 µM turned out to be 2.05 ± 2.45%.

On to `O=[N+]([O-])c1ccc2nc(Nc3cccc(O)c3)c(Nc3cccc(O)c3)nc2c1` [TD613, 3-(2-(3-hydroxyphenylamino)-6-nitroquinoxalin-3-ylamino)phenol], for which the viability at 1 µM in assay [1] came out at 86 ± 0.5%; in assay [2], 75.5 ± 7.9%; in assay [3], 105 ± 3.4%; in assay [4], 69.9 ± 60.7%; in assay [5], 108 ± 1.99%; in assay [6], 99.45 ± 0.5%. The viability at 1 µM in assay [7] amounted to 116 ± 7.2%. Moreover, the viability at 10 µM was found to be 24.8 ± 2% in assay [1]; 7 ± 0.3% in assay [2]; 9.5 ± 0.7% in assay [3]; 12 ± 0.5% in assay [4]; 11.6 ± 1.38% in assay [5]; 18.8 ± 0.22% in assay [6]. Besides, the viability at 10 µM in assay [7] came to 80.9 ± 3.8%.
